Calls of active or inactive are those of the source.
Experiments:
[1] = target: Photoreceptor-specific nuclear receptor (Homo sapiens, UniProt Q9Y5X4); format: functional;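 further: potency for compounds that break the NR2E3 corepressor complex and count as activators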
[2] = target: T1, RNA-binding protein pos-1 (Caenorhabditis elegans, UniProt G5EF15); test: inhibitors of POS-1/mex-3 RNA binding, dose response, biochemical, fluorescence polarization (AID 1964);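 further: purified POS-1 fused to maltose binding protein made in E. coli; potency of compounds blocking POS-1 binding to fluorescent RNA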
T1 sequence (G5EF15 whole entry): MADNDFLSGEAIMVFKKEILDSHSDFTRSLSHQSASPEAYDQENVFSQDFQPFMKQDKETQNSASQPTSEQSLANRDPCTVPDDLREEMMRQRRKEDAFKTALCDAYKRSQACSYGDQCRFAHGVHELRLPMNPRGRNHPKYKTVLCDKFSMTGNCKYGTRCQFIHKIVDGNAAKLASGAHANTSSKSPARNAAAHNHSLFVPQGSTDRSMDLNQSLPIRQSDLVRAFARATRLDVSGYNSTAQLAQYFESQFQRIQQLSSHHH

[3] = target: T2, Zinc finger protein mex-5 (Caenorhabditis elegans, UniProt Q9XUB2); test: MEX-5/TCR-2 RNA interaction inhibitors, dose response, biochemical, C. elegans, fluorescence polarization (AID 1960)
T2 sequence (Q9XUB2 whole entry): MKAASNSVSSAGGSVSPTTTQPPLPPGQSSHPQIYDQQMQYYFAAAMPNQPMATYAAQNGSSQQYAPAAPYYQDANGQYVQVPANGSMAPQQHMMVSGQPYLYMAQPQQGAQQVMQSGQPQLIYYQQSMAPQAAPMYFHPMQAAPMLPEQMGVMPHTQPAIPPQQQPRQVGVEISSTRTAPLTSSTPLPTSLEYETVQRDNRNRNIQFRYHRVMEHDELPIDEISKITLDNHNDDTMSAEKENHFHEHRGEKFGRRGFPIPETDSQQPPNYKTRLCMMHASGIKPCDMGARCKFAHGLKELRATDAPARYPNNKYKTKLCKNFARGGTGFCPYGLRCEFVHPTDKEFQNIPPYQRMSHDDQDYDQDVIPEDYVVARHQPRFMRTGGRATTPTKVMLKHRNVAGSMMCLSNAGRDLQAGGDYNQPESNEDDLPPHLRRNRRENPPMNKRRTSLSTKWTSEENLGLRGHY

[4] = target: Peroxisome proliferator-activated receptor gamma/Nuclear receptor corepressor 2 (Homo sapiens, UniProt P37231+Q9Y618); format: functional
[5] = target: NACHT, LRR and PYD domains-containing protein 3 (Homo sapiens, UniProt Q96P20); test: NALP3 inhibitors in yeast, dose response, luminescent (AID 488799); format: functional
Nonstructural protein 1 = Nonstructural protein 1 (Influenza A virus, UniProt Q194T2); format: functional, Influenza A virus (A/California/07/2009(H1N1))
[6] = target: T3, Short transient receptor potential channel 4 (Mus musculus, UniProt Q9QUQ5); test: mouse TRPC4 channel inhibitors, dose response, cell-based, HEK293 TRPC4/mu-opioid, Fluo-4 calcium (AID 434942); format: functional;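 further: potency of inhibitors blocking the TRPC4 calcium response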
T3 sequence (Q9QUQ5 whole entry): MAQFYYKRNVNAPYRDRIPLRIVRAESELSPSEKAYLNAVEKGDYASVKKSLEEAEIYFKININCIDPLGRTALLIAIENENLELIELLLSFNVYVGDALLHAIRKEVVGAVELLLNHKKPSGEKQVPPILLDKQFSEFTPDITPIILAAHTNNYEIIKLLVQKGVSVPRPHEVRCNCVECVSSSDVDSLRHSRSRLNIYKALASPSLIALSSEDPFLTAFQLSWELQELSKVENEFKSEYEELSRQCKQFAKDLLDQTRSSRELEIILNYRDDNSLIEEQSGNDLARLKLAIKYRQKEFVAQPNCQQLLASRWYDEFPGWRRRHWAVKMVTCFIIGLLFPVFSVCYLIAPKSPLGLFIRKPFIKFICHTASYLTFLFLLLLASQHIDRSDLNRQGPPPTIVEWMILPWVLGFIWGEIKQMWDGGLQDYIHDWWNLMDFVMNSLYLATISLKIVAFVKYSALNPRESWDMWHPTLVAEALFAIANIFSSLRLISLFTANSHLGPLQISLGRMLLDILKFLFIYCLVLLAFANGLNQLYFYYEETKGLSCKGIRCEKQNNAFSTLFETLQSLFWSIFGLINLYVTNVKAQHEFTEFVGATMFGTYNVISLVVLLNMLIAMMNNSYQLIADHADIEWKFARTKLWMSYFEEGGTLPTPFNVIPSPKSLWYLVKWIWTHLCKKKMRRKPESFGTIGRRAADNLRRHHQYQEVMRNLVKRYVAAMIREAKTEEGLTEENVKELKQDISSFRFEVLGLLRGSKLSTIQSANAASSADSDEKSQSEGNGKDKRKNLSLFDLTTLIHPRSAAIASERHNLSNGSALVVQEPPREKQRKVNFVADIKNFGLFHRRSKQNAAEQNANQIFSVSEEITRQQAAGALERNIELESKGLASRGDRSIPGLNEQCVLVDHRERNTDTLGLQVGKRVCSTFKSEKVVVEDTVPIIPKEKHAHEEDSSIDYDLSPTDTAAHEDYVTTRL

[7] = target: Glyceraldehyde-3-phosphate dehydrogenase (Homo sapiens, UniProt P04406)
[8] = target: Alkaline phosphatase, placental type (Homo sapiens, UniProt P05187); test: PLAP enzyme inhibitors, confirmation, biochemical, luminescence (AID 1512); format: functional
[9] = target: T4, Alkaline phosphatase, tissue-nonspecific isozyme (Homo sapiens, UniProt P05186); test: human TNAP enzyme inhibitors, SAR follow-up, biochemical, luminescent, dose response (AID 1056)
T4 sequence (P05186 whole entry): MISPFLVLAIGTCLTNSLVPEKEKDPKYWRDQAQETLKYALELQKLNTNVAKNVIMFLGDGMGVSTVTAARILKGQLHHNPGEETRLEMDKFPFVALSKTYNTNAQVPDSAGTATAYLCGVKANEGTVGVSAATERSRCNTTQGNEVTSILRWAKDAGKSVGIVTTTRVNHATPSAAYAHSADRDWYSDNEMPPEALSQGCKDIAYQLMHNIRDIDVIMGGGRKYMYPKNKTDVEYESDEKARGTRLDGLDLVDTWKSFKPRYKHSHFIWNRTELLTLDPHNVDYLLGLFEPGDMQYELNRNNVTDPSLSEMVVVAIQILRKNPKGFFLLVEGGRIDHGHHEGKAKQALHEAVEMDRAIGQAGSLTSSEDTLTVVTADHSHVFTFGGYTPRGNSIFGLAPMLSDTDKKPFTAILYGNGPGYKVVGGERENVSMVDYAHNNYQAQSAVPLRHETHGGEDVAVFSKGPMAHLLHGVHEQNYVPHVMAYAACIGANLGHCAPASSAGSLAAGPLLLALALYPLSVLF

[10] = target: T5, Neuropeptides B/W receptor type 1 (Homo sapiens, UniProt P48145); test: Fluorescence-based dose response cell-based high throughput screening assay to identify antagonists of the G-protein coupled receptor 7 (GPR7). [Related pubchem assays: 1952 (Screening assay (GPR7 antagonists).), 1880 (Summary AID.)]; format: functional
T5 sequence (P48145 whole entry): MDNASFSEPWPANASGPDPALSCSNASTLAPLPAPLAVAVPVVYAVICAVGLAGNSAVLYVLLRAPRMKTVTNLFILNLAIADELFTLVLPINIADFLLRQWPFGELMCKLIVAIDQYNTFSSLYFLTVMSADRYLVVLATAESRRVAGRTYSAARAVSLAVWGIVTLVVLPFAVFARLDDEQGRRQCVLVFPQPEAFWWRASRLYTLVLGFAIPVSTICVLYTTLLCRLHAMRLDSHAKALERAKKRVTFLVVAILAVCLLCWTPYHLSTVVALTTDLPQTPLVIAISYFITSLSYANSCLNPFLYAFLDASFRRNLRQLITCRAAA

[11] = target: Melanin-concentrating hormone receptor 1 (Homo sapiens, UniProt Q99705); test: Fluorescence-based counterscreen for antagonists of the G-protein coupled receptor 7 (GPR7): cell-based high throughput dose response assay to identify antagonists of the melanin-concentrating hormone receptor 1 (MCHR1).; format: functional
[12] = target: Neurotensin receptor type 1 (Homo sapiens, UniProt P30989); format: functional;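 further: Image-based confirmatory dose-response assay measuring agonist activity at NTR1; NTR1-expressing U2OS osteosarcoma cells imaged for beta-arrestin GFP spot formation; agonist potency where compounds increase beta-arrestin recruitment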
[13] = target: 1-acylglycerol-3-phosphate O-acyltransferase ABHD5/Perilipin-5 (Homo sapiens, UniProt Q00G26+Q8WTS1); test: Luminescence-based biochemical high throughput dose response assay for inhibitors of the interaction of the lipase co-activator protein, abhydrolase domain containing 5 (ABHD5) with perilipin-5 (MLDP; PLIN5) (2K validation set). [Related pubchem assays (depositor defined):AID493035, AID493241]
Perilipin-1/ABHD5 = Perilipin-1/ABHD5 (Homo sapiens, UniProt O60240+Q8WTS1); test: Luminescence-based biochemical high throughput dose response assay for inhibitors of the interaction of the lipase co-activator protein, abhydrolase domain containing 5 (ABHD5) with perilipin-1 (PLIN1) (2K validation set). [Related pubchem assays (depositor defined):AID493027, AID493057]
[14] = target: Eukaryotic translation initiation factor 4E (Mus musculus, UniProt P63073); test: eIF4E–eIF4G protein interaction inhibitors, dose response, biochemical, TR-FRET (AID 855); format: functional;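 further: potency for disrupting eIF4E binding to eIF4GI seen as loss of FRET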
[15] = target: Luciferin 4-monooxygenase (Photinus pyralis, UniProt P08659); test: Counter Screen for Luciferase-based Assay Positives. [Related pubchem assays: 620, 618, 411 ]
HT-1080 = test: cytotoxicity in HT1080 fibrosarcoma cells, cell-based, fluorescence readout (AID 620); format: functional; details: Homo sapiens
[16] = cytotoxicity in HEK-293T cells, dose response, cytotoxicity control for BCR NF-kB inhibitor project, luminescence, B-cell screen hits (AID 489021); format: functional, cell-based;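 further: HEK-293T cells carrying an NF-kB luciferase reporter; cells exposed to compound for about 14 hours before viability readout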
HEK293 [17] = test: inhibitors of LMP1-driven NF-kB reporter, dose response, cell-based, HEK293, luciferase, cherry-pick (AID 588343); format: functional; details: Homo sapiens
[18] = target: T6, Tyrosine-protein phosphatase non-receptor type 7 (Homo sapiens, UniProt P35236); test: redox-dependent HePTP inhibition, mechanism study, biochemical, fluorescence (AID 2068); format: functional
T6 sequence (P35236 whole entry): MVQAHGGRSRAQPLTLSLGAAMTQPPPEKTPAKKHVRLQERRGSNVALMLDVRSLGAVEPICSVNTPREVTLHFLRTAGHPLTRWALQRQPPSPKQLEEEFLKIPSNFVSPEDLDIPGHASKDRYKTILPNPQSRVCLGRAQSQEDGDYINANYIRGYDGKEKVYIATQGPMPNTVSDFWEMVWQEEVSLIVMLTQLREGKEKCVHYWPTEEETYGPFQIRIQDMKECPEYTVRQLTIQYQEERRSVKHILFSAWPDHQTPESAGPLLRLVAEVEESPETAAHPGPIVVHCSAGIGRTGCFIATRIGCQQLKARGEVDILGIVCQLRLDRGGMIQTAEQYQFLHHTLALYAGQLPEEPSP

HEK293 [19] = test: cells; details: Homo sapiens
HEK293 [20] = test: cells; details: Homo sapiens; remark: listed apart in the source
[21] = target: T7, Voltage-gated N-type calcium channel alpha-1B subunit/Amyloid beta A4 precursor protein-binding family A member 1 (Homo sapiens, UniProt Q00975+Q02410); format: protein assay
[22] = target: T7, Voltage-gated N-type calcium channel alpha-1B subunit/Amyloid beta A4 precursor protein-binding family A member 1; format: protein assay; remark: listed apart in the source
[23] = target: Induced myeloid leukemia cell differentiation protein Mcl-1 (Homo sapiens, UniProt Q07820); format: functional

Chain of 1-acylglycerol-3-phosphate O-acyltransferase ABHD5/Perilipin-5 (Q00G26 whole entry, the tested form may be a part): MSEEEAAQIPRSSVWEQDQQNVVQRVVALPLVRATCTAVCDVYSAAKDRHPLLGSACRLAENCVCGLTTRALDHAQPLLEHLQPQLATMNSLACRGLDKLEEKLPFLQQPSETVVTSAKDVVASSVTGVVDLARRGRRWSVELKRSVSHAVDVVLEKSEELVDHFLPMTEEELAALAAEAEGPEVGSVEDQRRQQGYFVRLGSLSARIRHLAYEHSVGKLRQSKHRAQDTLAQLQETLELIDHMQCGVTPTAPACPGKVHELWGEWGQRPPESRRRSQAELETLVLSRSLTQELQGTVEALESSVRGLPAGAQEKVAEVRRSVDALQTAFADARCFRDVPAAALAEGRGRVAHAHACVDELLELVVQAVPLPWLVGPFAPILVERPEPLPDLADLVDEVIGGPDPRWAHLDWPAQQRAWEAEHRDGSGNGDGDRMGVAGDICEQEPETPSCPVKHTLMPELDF
Chain of 1-acylglycerol-3-phosphate O-acyltransferase ABHD5/Perilipin-5 (Q8WTS1 whole entry, the tested form may be a part): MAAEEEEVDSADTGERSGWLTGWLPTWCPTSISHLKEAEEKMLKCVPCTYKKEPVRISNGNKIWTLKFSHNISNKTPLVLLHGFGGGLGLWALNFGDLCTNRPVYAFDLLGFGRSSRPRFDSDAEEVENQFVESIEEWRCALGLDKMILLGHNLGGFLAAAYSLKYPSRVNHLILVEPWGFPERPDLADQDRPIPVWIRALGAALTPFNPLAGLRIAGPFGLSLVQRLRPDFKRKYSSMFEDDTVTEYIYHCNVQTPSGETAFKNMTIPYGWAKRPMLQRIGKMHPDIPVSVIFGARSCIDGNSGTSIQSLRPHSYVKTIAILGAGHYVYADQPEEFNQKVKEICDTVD
T7 sequence (Q00975 whole entry): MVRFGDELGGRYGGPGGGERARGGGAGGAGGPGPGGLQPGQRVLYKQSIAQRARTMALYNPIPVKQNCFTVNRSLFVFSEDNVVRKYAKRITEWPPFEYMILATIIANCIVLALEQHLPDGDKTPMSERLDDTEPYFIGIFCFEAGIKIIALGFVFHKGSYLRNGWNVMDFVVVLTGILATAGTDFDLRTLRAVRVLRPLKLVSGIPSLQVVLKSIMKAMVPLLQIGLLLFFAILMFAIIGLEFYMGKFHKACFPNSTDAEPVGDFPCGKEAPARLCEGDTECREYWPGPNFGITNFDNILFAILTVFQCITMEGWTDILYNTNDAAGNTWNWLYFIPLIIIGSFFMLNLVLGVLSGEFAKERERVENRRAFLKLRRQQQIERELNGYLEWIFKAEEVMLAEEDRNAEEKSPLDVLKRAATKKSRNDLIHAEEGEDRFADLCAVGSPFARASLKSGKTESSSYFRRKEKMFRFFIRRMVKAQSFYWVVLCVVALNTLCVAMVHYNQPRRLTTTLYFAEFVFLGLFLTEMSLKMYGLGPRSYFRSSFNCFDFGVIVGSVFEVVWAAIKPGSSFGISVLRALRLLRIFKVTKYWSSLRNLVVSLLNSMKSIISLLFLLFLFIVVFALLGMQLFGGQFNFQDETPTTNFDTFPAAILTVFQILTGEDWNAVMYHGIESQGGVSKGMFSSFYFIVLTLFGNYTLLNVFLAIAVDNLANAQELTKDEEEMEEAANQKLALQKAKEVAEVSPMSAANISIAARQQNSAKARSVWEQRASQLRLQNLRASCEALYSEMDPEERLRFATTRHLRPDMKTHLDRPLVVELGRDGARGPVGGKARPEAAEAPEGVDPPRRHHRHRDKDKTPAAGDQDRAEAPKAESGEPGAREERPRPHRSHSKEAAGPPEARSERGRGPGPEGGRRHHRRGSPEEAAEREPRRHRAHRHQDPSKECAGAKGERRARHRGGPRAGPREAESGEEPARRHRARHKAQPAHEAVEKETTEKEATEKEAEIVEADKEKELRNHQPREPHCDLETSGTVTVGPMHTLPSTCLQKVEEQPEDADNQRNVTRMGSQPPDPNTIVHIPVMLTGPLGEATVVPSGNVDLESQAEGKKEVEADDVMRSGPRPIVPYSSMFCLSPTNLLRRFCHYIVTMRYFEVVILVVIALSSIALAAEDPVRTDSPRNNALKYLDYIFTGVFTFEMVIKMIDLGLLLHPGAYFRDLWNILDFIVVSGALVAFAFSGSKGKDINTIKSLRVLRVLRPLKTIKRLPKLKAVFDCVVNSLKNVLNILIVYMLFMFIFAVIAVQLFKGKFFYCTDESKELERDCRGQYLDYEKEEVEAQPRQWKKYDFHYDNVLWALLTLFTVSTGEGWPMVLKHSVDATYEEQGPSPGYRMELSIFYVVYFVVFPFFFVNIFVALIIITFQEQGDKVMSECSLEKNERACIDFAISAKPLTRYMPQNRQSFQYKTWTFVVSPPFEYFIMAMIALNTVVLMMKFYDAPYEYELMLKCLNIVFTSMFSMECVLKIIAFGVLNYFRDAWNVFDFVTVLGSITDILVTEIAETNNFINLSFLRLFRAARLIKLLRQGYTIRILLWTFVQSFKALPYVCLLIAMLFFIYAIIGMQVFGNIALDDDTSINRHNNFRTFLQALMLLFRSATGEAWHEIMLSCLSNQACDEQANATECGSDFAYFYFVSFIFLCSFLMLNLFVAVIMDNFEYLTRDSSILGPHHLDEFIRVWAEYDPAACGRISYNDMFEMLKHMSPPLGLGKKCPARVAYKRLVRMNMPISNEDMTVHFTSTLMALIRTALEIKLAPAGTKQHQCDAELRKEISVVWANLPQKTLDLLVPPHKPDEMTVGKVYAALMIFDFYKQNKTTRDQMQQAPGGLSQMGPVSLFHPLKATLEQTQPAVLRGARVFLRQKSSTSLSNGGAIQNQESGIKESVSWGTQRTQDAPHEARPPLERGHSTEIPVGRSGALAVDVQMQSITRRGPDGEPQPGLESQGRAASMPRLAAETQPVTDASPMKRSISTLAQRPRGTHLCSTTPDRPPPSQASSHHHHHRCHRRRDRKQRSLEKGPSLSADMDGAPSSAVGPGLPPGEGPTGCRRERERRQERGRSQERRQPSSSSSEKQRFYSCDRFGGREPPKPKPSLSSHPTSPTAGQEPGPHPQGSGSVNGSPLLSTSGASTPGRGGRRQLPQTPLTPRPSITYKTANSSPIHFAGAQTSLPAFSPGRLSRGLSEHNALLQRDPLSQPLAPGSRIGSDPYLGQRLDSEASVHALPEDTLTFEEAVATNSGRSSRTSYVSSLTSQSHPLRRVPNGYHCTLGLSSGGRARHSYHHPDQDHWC
T7 sequence (Q02410 whole entry): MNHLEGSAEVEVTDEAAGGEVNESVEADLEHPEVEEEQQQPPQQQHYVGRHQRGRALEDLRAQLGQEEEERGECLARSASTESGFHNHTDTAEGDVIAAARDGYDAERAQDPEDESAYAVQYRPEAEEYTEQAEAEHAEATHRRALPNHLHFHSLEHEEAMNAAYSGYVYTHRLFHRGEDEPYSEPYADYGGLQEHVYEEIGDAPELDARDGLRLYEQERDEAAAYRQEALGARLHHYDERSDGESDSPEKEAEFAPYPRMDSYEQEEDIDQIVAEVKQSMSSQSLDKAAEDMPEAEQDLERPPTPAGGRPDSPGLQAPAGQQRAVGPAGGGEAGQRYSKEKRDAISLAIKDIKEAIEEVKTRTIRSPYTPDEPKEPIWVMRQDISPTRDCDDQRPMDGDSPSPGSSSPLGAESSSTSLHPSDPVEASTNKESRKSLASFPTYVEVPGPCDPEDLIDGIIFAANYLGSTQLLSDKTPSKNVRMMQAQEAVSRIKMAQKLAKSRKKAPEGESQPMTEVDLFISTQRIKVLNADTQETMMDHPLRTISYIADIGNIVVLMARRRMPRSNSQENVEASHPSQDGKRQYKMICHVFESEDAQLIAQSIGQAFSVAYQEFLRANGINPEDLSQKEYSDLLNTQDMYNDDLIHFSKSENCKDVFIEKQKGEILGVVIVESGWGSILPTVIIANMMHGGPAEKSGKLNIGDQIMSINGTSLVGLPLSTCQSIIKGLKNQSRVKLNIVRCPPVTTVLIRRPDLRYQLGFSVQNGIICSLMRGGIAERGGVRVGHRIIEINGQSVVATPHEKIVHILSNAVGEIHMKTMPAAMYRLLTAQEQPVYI
Chain of Perilipin-1/ABHD5 (Q8WTS1 whole entry, the tested form may be a part): as the sequence (Q8WTS1 whole entry, the tested form may be a part) above
Chain of Perilipin-1/ABHD5 (O60240 whole entry, the tested form may be a part): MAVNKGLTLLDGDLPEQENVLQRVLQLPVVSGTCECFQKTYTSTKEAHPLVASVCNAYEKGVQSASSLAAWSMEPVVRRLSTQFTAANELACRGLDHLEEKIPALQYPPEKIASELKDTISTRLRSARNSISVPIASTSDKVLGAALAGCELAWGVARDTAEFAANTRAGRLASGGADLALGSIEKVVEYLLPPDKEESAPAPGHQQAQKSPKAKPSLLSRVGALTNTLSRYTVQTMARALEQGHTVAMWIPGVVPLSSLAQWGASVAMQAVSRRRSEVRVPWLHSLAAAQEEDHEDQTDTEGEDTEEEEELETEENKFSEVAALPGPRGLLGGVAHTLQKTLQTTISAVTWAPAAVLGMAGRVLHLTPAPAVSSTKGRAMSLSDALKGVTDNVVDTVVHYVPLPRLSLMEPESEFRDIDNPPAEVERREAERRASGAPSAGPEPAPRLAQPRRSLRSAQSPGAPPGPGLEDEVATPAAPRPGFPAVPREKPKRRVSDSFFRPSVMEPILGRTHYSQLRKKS
Chain of Alkaline phosphatase, placental type (P05187 whole entry): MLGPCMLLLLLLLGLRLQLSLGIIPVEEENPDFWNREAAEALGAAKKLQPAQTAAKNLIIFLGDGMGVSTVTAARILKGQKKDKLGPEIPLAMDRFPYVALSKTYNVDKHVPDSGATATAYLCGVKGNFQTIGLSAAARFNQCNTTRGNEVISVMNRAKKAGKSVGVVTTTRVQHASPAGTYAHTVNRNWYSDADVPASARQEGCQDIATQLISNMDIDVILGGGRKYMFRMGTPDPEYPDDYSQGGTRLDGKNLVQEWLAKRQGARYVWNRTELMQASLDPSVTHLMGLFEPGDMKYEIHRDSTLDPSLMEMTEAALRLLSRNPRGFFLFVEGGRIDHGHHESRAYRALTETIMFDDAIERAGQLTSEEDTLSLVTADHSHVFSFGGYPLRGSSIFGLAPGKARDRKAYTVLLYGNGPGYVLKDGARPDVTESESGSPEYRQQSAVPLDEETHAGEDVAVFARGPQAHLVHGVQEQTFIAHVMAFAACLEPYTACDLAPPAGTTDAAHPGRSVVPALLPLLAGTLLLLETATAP

In the case of `CC(=O)Nc1ccc(NC(=O)C(C)OC(=O)/C(C#N)=C/c2ccc(N(C)C)cc2)cc1` (centres undefined), the IC50 [1] is reported as > 39.8 µM (not active), the EC50 [2] is reported as 26.9 µM (active) and the EC50 [3] is reported as 86.3 µM (inconclusive). For the same molecule, the IC50 [4] was > 39.8 µM (not active).

With `O=C(Nc1cccc(Cl)c1)c1cc(N=Nc2ccc([N+](=O)[O-])cc2Cl)ccc1O` the IC50 [5] was 1.34 µM (active) and the IC50 (Nonstructural protein 1) was 22.1 µM (active).

In the case of `Cc1ccc(O)c(CNc2nc3ccccc3[nH]2)c1`, the EC50 [6] is reported as 1.5 µM (active).

With `Clc1ccccc1-c1nnc2c3cnn(-c4ccccc4)c3ncn12` the IC50 [7] was > 100 µM (not active), the IC50 [8] was > 100 µM (inactive) and the IC50 [9] was > 100 µM (inactive).

For `Cn1ccnc1SCC(=O)c1ccc(O)c(O)c1`, the IC50 [8] was 8.56 µM (active) and the IC50 [9] was 75.7 µM (active).

For `CCCCN(C)C(=O)c1nc2ccccn2c1CN1CCN(C/C=C/c2ccccc2)CC1`, the IC50 [10] was > 43.8 µM (not active) and the IC50 [11] was 16.6 µM (not active).

In the case of `O=C(Nc1ccc2oc(-c3ccccc3F)nc2c1)c1ccc2c(c1)OCCO2`, the EC50 [12] is reported as 31.1 µM (inactive).

With `CC1(C)c2ccccc2N2CC(=O)NC21/C=C/c1ccco1` (centres undefined) the IC50 [13] was 20.6 µM (inactive), the IC50 (Perilipin-1/ABHD5) was 20.8 µM (inactive) and the IC50 [14] was 50 µM (inactive).

With `CCc1ccc(-c2nnn(CCC(=O)OC)n2)cc1` the EC50 [15] was 5.58 µM (active), the EC50 (HT-1080) was > 50 µM (not active) and the IC50 [16] was > 80 µM (inactive). The AC50 (HEK293 [17]) was 16.2 µM (active).

For `COc1ccc(NC(=O)Nc2ccc3nc(-c4ccco4)c(-c4ccco4)nc3c2)cc1`, the IC50 [18] was 12.2 µM (active).

In the case of `O=C(NCCN1CCOCC1)c1cc2sccc2n1Cc1ccc(F)cc1`, the EC50 [6] is reported as 5.96 µM (active), the EC50 (HEK293 [19]) is reported as > 59.7 µM (inactive) and the EC50 (HEK293 [20]) is reported as > 59.7 µM (inactive).

With `CCn1c(=O)cc(OCC(=O)N(C)C2CCCCC2)c2ccccc21` the IC50 [16] was > 80 µM (inactive).

In the case of `CCOc1cc2c3c(c1)C(C)=CC(C)(C)N3C(=O)C2=O`, the IC50 [13] is reported as 15 µM (inactive) and the IC50 (Perilipin-1/ABHD5) is reported as 15.3 µM (inactive).

For `O=C(C1=C(O)C(=O)N(CCN2CCOCC2)C1c1cccs1)c1cc2ccccc2o1` (centres undefined), the IC50 [1] was > 39.8 µM (not active) and the IC50 [4] was 6.71 µM (active).

For `CCOC(=O)c1ccc(N=Nc2c(O)nc(O)c(C#N)c2C)cc1`, the IC50 [21] was > 56.8 µM (not active), the IC50 [22] was > 50 µM (inactive) and the IC50 [23] was 3.18 µM (active).
